Drawing on patent US8338451B2, “Polysubstituted derivatives of 2-heteroaryl-6-phenylimidazo[1,2-a]pyridines, and preparation and therapeutic use thereof” (Sanofi, priority 2008, dated 2012), this text covers EC50 for 7 compounds.

For the experiment, the target named is T1, mouse Nurr1 receptor (Mus musculus, UniProt Q06219).
T1 construct: a cell line (N2A) endogenously expressing the mouse Nurr1 receptor; host or cells: Neuro-2A (N2A) mouse neuroblastoma cells stably transfected with 8NBRE-luciferase
T1 sequence (Q06219 whole entry): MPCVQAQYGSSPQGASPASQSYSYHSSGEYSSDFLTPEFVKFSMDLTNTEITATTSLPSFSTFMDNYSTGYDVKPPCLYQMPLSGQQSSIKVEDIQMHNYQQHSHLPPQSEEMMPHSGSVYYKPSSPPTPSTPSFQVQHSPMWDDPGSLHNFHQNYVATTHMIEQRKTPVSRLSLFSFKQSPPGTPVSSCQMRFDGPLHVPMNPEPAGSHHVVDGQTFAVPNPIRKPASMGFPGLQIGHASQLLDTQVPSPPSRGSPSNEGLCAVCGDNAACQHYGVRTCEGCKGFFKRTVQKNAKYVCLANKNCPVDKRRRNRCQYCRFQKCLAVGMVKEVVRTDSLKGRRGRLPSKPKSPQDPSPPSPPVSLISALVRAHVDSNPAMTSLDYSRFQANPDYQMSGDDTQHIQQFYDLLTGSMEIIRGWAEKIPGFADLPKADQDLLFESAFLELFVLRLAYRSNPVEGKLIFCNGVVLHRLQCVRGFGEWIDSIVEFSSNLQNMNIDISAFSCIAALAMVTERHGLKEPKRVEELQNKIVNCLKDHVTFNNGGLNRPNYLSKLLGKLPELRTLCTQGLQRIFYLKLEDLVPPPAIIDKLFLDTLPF
Nature of the experiment: In vitro activity on N2A cells: NBRE-luciferase reporter (NOT/Nurr1 modulation). Conditions: N2A (Neuro-2A) cells stably transfected with 8NBRE-luciferase, 24 hours incubation. Type of experiment: cell-based. The protocol: Evaluation of the In Vitro Activity on N2A Cells The activity of the compounds according to the invention was evaluated on a cell line (N2A) endogenously expressing the mouse Nurr1 receptor and stably transfected with the NOT binding response element (NBRE) coupled to the luciferase reporter gene. The EC50 values are between 0.01 and 10 μM. The tests were carried out according to the procedure described below. The Neuro-2A cell line comes from a standard commercial source (ATCC). The Neuro-2A clone was obtained from a spontaneous tumour originating from a mouse A albino strain, by R. J Klebe et el. This Neuro-2A line is then stably transfected with 8NBRE-luciferase. The N2A-8NBRE cells are cultured to confluence in 75 cm^2 culture flasks containing DMEM supplemented with 10% of foetal calf serum, 4.5 g/l of glucose and 0.4 mg/ml of geneticin. After one week of culture, the cells are recovered with 0.25% trypsin for 30 seconds, and then resuspended in DMEM without phenol red, containing 4.5 g/l of glucose and 10% of Hyclone defatted serum, and deposited in white, transparent-bottom 96-well plates. The cells are deposited at a rate of 60 000 per well in 75 μl for 24 hours before the addition of the products. […] On the day of the measurement, an equivalent volume (100 μl) of Steadylite is added to each well, followed by a waiting period of 30 minutes in order to obtain complete lysis of the cells and maximum production of the signal. The plates are then measured in a microplate luminescence counter after having been sealed with an adhesive film. […] Each product concentration is diluted beforehand in culture medium before incubation with the cells thus containing a final concentration of 0.625% of DMSO.
On the technique in general: A reporter such as luciferase makes a cellular process visible.
The EC50 is the concentration needed to bring the measured effect to its halfway point. Higher therefore signals a less potent agent. `CC(C)(O)c1cccc(-c2ccc3nc(-c4ccccn4)cn3c2)c1` [Compound 50, 2-[3-(2-pyridin-2-ylimidazo[1,2-a]pyridin-6-yl)phenyl]propan-2-ol]: a half-maximal effect (EC50) was put at 202 nM. In the case of `OCc1cccc(-c2ccc3nc(-c4cccnc4)cn3c2)c1` [Compound 7] it was 1.6 nM; in that of `OCc1c(F)cccc1-c1ccc2nc(-c3cccs3)cn2c1` [Compound 68, [2-fluoro-6-(2-thien-2-ylimidazo[1,2-a]pyridin-6-yl)phenyl]methanol], 20 nM. In the case of `OCc1cccc(-c2ccc3nc(-c4ccc5c(c4)OCO5)cn3c2)c1` [Compound 6, {3-[2-(1,3-benzodioxol-5-yl)imidazo[1,2-a]pyridin-6-yl]phenyl}methanol] it was 0.9 nM; in that of `Cc1cc(-c2cn3cc(-c4cccc(C(C)(C)O)c4)ccc3n2)no1` [Compound 86, 2-{3-[2-(5-methylisoxazol-3-yl)imidazo[1,2-a]pyridin-6-yl]phenyl}propan-2-ol], 71 nM; in that of `OCc1ccc(-c2ccc3nc(-c4coc5ccccc45)cn3c2)cc1` [Compound 24, [4-[2-(benzofuran-3-yl)imidazo[1,2-a]pyridin-6-yl]phenyl]methanol], 50 nM. Consider `OCc1c(F)ccc(-c2ccc3nc(-c4cc5ccccc5o4)cn3c2)c1F` [Compound 79, [3-(2-benzofuran-2-ylimidazo[1,2-a]pyridin-6-yl)-2,6-difluorophenyl]methanol], for which the EC50 worked out at 5 nM.
